Data as given in patent US20260327214A1, “1,3,4-OXADIAZOLE DERIVATIVE COMPOUNDS AS HISTONE DEACETYLASE 6 INHIBITOR, AND USES THEREOF” (CHONG KUN DANG PHARMACEUTICAL CORP., priority 2022, published 2026).

Experiments:
human recombinant HDAC1 = molecular target: T1, human recombinant HDAC1 (Homo sapiens, UniProt Q13547); assay: HDAC1 enzyme activity inhibition test (HDAC Fluorometric Drug Discovery Kit); assay type: biochemical; conditions: 30° C., 60 minutes, 10 μM substrate
T1 construct: purchased Enzo Life Science BML-SE456
Protocol: (§1) The following experiment was conducted to confirm the HDAC6 selectivity of the compound represented by Chemical Formula I of the present invention through the HDAC1 and HDAC6 enzyme activity inhibition test.
(§2) HDAC enzyme activity was measured using HDAC Fluorometric Drug Discovery Kit (BML-AK511, 516) manufactured by Enzo Life Science. For the HDAC1 enzyme activity test, human recombinant HDAC1 (BML-SE456) was used as an enzyme source and Fluor de Lys-®-″SIRT1 (BNL-KI177) was used as a substrate. The 5-fold diluted compound was dispensed in a 96-well plate, 0.3 μg of enzyme and 10 μM substrate were added to each well and reacted at 30° C. for 60 minutes, and Fluor de Lys® Developer II(BML-KI176) was added and reacted for 30 minutes to complete the reaction. Then, the fluorescence value (Ex 360, Em 460) was measured using a multiplate reader (Flexstation 3, Molecular Device). The HDAC6 enzyme was tested using the same protocol as the HDAC1 enzyme activity test method employing human recombinant HDAC6 (382180) from Calbiochem. For the final result, each […] value was calculated using the GraphPad Prism 4.0 program.

human recombinant HDAC6 = molecular target: T2, human recombinant HDAC6 (Homo sapiens, UniProt Q9UBN7); assay: HDAC6 enzyme activity inhibition test (HDAC Fluorometric Drug Discovery Kit); assay type: biochemical; conditions: for HDAC6 selectivity (fold): HDAC6 over HDAC1; for IC50: human recombinant HDAC6, same protocol as HDAC1
T2 construct: purchased Calbiochem 382180
T2 sequence (Q9UBN7 1-1215): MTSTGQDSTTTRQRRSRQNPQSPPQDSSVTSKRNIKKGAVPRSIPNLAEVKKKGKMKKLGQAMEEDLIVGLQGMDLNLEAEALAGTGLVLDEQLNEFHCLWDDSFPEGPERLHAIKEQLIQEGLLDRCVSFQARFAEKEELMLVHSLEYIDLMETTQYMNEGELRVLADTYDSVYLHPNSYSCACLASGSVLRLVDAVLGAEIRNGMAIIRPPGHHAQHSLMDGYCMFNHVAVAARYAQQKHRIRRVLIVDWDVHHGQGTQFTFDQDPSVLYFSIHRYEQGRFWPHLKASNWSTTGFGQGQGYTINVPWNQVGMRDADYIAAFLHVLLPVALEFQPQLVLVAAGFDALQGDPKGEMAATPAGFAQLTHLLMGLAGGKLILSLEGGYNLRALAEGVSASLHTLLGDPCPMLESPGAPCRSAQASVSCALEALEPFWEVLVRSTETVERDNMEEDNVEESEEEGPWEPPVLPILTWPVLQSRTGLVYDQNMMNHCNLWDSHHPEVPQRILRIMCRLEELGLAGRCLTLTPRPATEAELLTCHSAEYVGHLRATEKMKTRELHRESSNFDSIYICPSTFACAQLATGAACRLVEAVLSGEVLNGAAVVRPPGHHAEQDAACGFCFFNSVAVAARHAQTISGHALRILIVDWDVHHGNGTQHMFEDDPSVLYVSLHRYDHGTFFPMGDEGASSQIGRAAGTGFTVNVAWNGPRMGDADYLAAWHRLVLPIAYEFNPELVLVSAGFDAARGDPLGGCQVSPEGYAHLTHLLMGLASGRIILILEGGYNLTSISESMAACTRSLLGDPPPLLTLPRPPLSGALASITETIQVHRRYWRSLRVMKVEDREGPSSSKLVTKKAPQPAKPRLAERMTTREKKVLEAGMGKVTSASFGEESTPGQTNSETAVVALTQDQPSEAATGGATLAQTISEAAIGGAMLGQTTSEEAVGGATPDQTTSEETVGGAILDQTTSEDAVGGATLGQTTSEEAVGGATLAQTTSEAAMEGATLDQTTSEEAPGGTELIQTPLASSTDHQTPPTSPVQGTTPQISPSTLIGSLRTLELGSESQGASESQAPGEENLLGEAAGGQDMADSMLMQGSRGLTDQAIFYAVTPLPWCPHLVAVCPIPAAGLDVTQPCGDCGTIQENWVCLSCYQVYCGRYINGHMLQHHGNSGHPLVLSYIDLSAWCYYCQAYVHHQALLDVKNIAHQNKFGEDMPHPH
Protocol: as §1, §2

T1 sequence (Q13547 whole entry): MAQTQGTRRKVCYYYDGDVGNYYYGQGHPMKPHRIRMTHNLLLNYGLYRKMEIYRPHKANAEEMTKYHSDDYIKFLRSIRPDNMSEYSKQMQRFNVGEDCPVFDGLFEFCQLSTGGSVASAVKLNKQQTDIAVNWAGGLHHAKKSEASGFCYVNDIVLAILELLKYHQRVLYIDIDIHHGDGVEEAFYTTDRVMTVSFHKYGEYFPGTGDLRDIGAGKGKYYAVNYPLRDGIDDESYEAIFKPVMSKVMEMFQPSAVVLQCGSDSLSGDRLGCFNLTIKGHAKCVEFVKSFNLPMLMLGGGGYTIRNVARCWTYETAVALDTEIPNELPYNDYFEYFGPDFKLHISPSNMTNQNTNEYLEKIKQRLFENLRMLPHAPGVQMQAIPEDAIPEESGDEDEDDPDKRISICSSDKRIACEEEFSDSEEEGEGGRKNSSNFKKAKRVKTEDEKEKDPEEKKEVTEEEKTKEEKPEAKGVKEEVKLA

SMILES: FC(F)c1nnc(-c2ccc(Cn3nc(-c4ccc(CN5CC[C@H](F)C5)cc4)oc3=S)nc2)o1 [Compound 98, 3-[[5-[5-(difluoromethyl)-1,3,4-oxadiazol-2-yl]-2-pyridyl]methyl]-5-[4-[[(3S)-3-fluoropyrrolidin-1-yl]methyl]phenyl]-1,3,4-oxadiazol-2-thione]
- IC50 (human recombinant HDAC1): > 50000 nM
- HDAC6 selectivity (fold) (human recombinant HDAC6): 552 fold
- IC50 (human recombinant HDAC6): 90.6 nM

SMILES: CC(C)N1CCC(c2ccc(-c3nn(Cc4ccc(-c5nnc(C(F)F)o5)cn4)c(=O)o3)cc2)CC1 [Compound 30, 3-[[5-[5-(difluoromethyl)-1,3,4-oxadiazol-2-yl]-2-pyridyl]methyl]-5-[4-(1-isopropyl-4-piperidyl)phenyl]-1,3,4-oxadiazol-2-one]
- IC50 (human recombinant HDAC1): > 50000 nM
- HDAC6 selectivity (fold) (human recombinant HDAC6): 518 fold
- IC50 (human recombinant HDAC6): 96.5 nM

SMILES: CC(C)N1CCC(c2cccc(-c3nn(Cc4ccc(-c5nnc(C(F)F)o5)cn4)c(=S)o3)c2F)CC1 [Compound 80, 3-[[5-[5-(difluoromethyl)-1,3,4-oxadiazol-2-yl]-2-pyridyl]methyl]-5-[2-fluoro-3-(1-isopropyl-4-piperidyl)phenyl]-1,3,4-oxadiazol-2-thione]
- IC50 (human recombinant HDAC1): > 50000 nM
- HDAC6 selectivity (fold) (human recombinant HDAC6): 649 fold
- IC50 (human recombinant HDAC6): 77.1 nM

SMILES: O=c1oc(-c2ccc3c(c2)CN(C2CCC2)CC3)nn1Cc1ccc(-c2nnc(C(F)F)o2)cn1 [Compound 14, 5-(2-cyclobutyl-3,4-dihydro-1H-isoquinolin-7-yl)-3-[[5-[5-(difluoromethyl)-1,3,4-oxadiazol-2-yl]-2-pyridyl]methyl]-1,3,4-oxadiazol-2-one]
- IC50 (human recombinant HDAC1): > 50000 nM
- HDAC6 selectivity (fold) (human recombinant HDAC6): 478 fold
- IC50 (human recombinant HDAC6): 105 nM

SMILES: CN(C)Cc1cccc(-c2nn(Cc3ncc(-c4nnc(C(F)F)o4)cc3F)c(=S)o2)c1 [Compound 117, 3-[[5-[5-(difluoromethyl)-1,3,4-oxadiazol-2-yl]-3-fluoro-2-pyridyl]methyl]-5-[3-[(dimethylamino)methyl]phenyl]-1,3,4-oxadiazol-2-thione]
- IC50 (human recombinant HDAC1): > 50000 nM
- HDAC6 selectivity (fold) (human recombinant HDAC6): 675 fold
- IC50 (human recombinant HDAC6): 74.1 nM

SMILES: CN(C)Cc1ccc(-c2nn(Cc3ncc(-c4nnc(C(F)F)o4)cc3F)c(=S)o2)s1 [Compound 128, 3-[[5-[5-(difluoromethyl)-1,3,4-oxadiazol-2-yl]-3-fluoro-2-pyridyl]methyl]-5-[5-[(dimethylamino)methyl]-2-thienyl]-1,3,4-oxadiazol-2-thione]
- IC50 (human recombinant HDAC1): > 50000 nM
- HDAC6 selectivity (fold) (human recombinant HDAC6): 583 fold
- IC50 (human recombinant HDAC6): 85.7 nM

SMILES: O=c1sc(-c2ccccn2)nn1Cc1ccc(-c2nnc(C(F)F)o2)cn1 [Compound 49, 3-[[5-[5-(difluoromethyl)-1,3,4-oxadiazol-2-yl]-2-pyridyl]methyl]-5-(2-pyridyl)-1,3,4-thiadiazol-2-one]
- IC50 (human recombinant HDAC1): > 50000 nM
- HDAC6 selectivity (fold) (human recombinant HDAC6): 656 fold
- IC50 (human recombinant HDAC6): 76.2 nM

SMILES: Fc1cc(-c2nnc(C(F)F)o2)cnc1Cn1nc(-c2cccc(CN3CCC3)c2)oc1=S [Compound 118, 5-[3-(azetidine-1-ylmethyl)phenyl]-3-[[5-[5-(difluoromethyl)-1,3,4-oxadiazol-2-yl]-3-fluoro-2-pyridyl]methyl]-1,3,4-oxadiazol-2-thione]
- IC50 (human recombinant HDAC1): > 50000 nM
- HDAC6 selectivity (fold) (human recombinant HDAC6): 742 fold
- IC50 (human recombinant HDAC6): 67.4 nM

SMILES: O=c1oc(-c2cccc(N3CCNCC3)c2)nn1Cc1ccc(-c2nnc(C(F)F)o2)cn1 [Compound 36, 3-[[5-[5-(difluoromethyl)-1,3,4-oxadiazol-2-yl]-2-pyridyl]methyl]-5-(3-piperazin-1-ylphenyl)-1,3,4-oxadiazol-2-one]
- IC50 (human recombinant HDAC1): > 50000 nM
- HDAC6 selectivity (fold) (human recombinant HDAC6): 640 fold
- IC50 (human recombinant HDAC6): 78.1 nM

SMILES: CCN1CCN(c2cccc(-c3nn(Cc4ncc(-c5nnc(C(F)F)o5)cc4F)c(=S)o3)n2)CC1 [Compound 103, 3-[[5-[5-(difluoromethyl)-1,3,4-oxadiazol-2-yl]-3-fluoro-2-pyridyl]methyl]-5-[6-(4-ethylpiperazin-1-yl)-2-pyridyl]-1,3,4-oxadiazol-2-thione]
- IC50 (human recombinant HDAC1): > 50000 nM
- HDAC6 selectivity (fold) (human recombinant HDAC6): 1302 fold
- IC50 (human recombinant HDAC6): 38.4 nM

SMILES: FC(F)c1nnc(-c2ccc(Cn3nc(-c4cccc(CN5CCOCC5)c4)oc3=S)nc2)o1 [Compound 99, 3-[[5-[5-(difluoromethyl)-1,3,4-oxadiazol-2-yl]-2-pyridyl]methyl]-5-[3-(morpholinomethyl)phenyl]-1,3,4-oxadiazol-2-thione]
- IC50 (human recombinant HDAC1): > 50000 nM
- HDAC6 selectivity (fold) (human recombinant HDAC6): 511 fold
- IC50 (human recombinant HDAC6): 97.8 nM

SMILES: FC(F)c1nnc(-c2ccc(Cn3nc(-c4cccs4)oc3=S)nc2)o1 [Compound 50, 3-[ [5-[5-(difluoromethyl) -1,3,4-oxadiazol-2-yl] -2-pyridyl]methyl] -5-(2-thienyl)-1,3,4-oxadiazol-2-thione]
- IC50 (human recombinant HDAC1): > 50000 nM
- HDAC6 selectivity (fold) (human recombinant HDAC6): 588 fold
- IC50 (human recombinant HDAC6): 85.1 nM

SMILES: CC1CC(N2CCC(c3cccc(-c4nn(Cc5ccc(-c6nnc(C(F)F)o6)cn5)c(=O)o4)c3)CC2)C1 (stereo not drawn) [Compound 10, 3-[[5-[5-(difluoromethyl)-1,3,4-oxadiazol-2-yl]-2-pyridyl]methyl]-5-[3-[1-(3-methylcyclobutyl)-4-piperidyl]phenyl]-1,3,4-oxadiazol-2-one]
- IC50 (human recombinant HDAC1): > 50000 nM
- HDAC6 selectivity (fold) (human recombinant HDAC6): 666 fold
- IC50 (human recombinant HDAC6): 75.1 nM

SMILES: Fc1cc(-c2nnc(C(F)F)o2)cnc1Cn1nc(-c2ccc3c(c2)CCN(C2CCC2)C3)oc1=S [Compound 137, 5-(2-cyclobutyl-3,4-dihydro-1H-isoquinolin-6-yl)-3-[[5-[5-(difluoromethyl)-1,3,4-oxadiazol-2-yl]-3-fluoro-2-pyridyl]methyl]-1,3,4-oxadiazol-2-thione]
- IC50 (human recombinant HDAC1): > 50000 nM
- HDAC6 selectivity (fold) (human recombinant HDAC6): 1075 fold
- IC50 (human recombinant HDAC6): 46.5 nM

SMILES: O=c1sc(-c2cccs2)nn1Cc1ccc(-c2nnc(C(F)F)o2)cn1 [Compound 44, 3-[[5-[5-(difluoromethyl)-1,3,4-oxadiazol-2-yl]2-pyridyl]methyl]-5-(2-thienyl)-1,3,4-thiadiazol-2-one]
- IC50 (human recombinant HDAC1): > 50000 nM
- HDAC6 selectivity (fold) (human recombinant HDAC6): 704 fold
- IC50 (human recombinant HDAC6): 71 nM

SMILES: FC(F)c1nnc(-c2ccc(Cn3nc(-c4cccc(CN5CCCCC5)c4)oc3=S)nc2)o1 [Compound 87, 3-[[5-[5-(difluoromethyl)-1,3,4-oxadiazol-2-yl]-2-pyridyl]methyl]-5-[3-(1-piperidylmethyl)phenyl]-1,3,4-oxadiazol-2-thione]
- IC50 (human recombinant HDAC1): > 50000 nM
- HDAC6 selectivity (fold) (human recombinant HDAC6): 556 fold
- IC50 (human recombinant HDAC6): 89.9 nM

SMILES: FC(F)c1nnc(-c2ccc(Cn3nc(-c4ccccn4)oc3=S)nc2)o1 [Compound 46, 3-[[5-[5-(difluoromethyl)-1,3,4-oxadiazol-2-yl]-2-pyridyl]methyl]-5-(2-pyridyl)-1,3,4-oxadiazol-2-thione]
- IC50 (human recombinant HDAC1): > 50000 nM
- HDAC6 selectivity (fold) (human recombinant HDAC6): 1171 fold
- IC50 (human recombinant HDAC6): 42.7 nM

SMILES: O=C1OCC(c2ccccc2)=NN1Cc1ncc(-c2nnc(C(F)F)o2)cc1F [Compound 71, 3-[[5-[5-(difluoromethyl)-1,3,4-oxadiazol-2-yl]-3-fluoro-2-pyridyl]methyl]-5-phenyl-6H-1,3,4-oxadiazin-2-one]
- IC50 (human recombinant HDAC1): > 50000 nM
- HDAC6 selectivity (fold) (human recombinant HDAC6): 510 fold
- IC50 (human recombinant HDAC6): 98 nM

SMILES: Cn1c(-c2ccccc2)cn(Cc2ccc(-c3nnc(C(F)F)o3)cn2)c1=O [Compound 144, 1-((5-(5-(difluoromethyl)-1,3,4-oxadiazol-2-yl)pyridin-2-yl)methyl)-3-methyl-4-phenyl-1,3-dihydro-2H-imidazol-2-one]
- IC50 (human recombinant HDAC1): > 50000 nM
- HDAC6 selectivity (fold) (human recombinant HDAC6): 185 fold
- IC50 (human recombinant HDAC6): 271 nM
